Test results: BindingDB's records for doi:10.1021/jm031046g (Novartis Institutes For Biomedical Research, 2004)

These compounds were tested against C-C chemokine receptor type 5 (Macaca fascicularis) (assay: Antagonistic activity against monkey C-C chemokine receptor type 5.).

Row | SMILES | IC50 [nM]
1 | Cc1cccc(C)c1C(=O)N1CCC(C)(N2CCC(Nc3ccc(C(F)(F)F)cc3)CC2)CC1 [(2,6-Dimethyl-phenyl)-[4'-methyl-4-(4-trifluoromethyl-phenylamino)-[1,4']bipiperidinyl-1'-yl]-methanone] | 1.1
2 | Cc1cccc(C)c1C(=O)N1CCC(C)(N2CCC(Nc3cccc4ccn(C)c34)CC2)CC1 [(2,6-Dimethyl-phenyl)-[4'-methyl-4-(1-methyl-1H-indol-7-ylamino)-[1,4']bipiperidinyl-1'-yl]-methanone] | 147
3 | Cc1cc[n+]([O-])c(C)c1C(=O)N1CCC(N2CCC(N(c3ccccc3)c3ccccc3)CC2)CC1 [(2,4-Dimethyl-1-oxy-pyridin-3-yl)-(4-diphenylamino-[1,4']bipiperidinyl-1'-yl)-methanone] | 117
4 | Cc1ccccc1C(=O)N1CCC(C)(N2CCC(N(c3ccccc3)c3ccccc3)CC2)CC1 [(4-Diphenylamino-4'-methyl-[1,4']bipiperidinyl-1'-yl)-o-tolyl-methanone] | 28.6
5 | Cc1cccc(C)c1C(=O)N1CCC(C)(N2CCC(Nc3ccc4ccn(C)c4c3)CC2)CC1 [(2,6-Dimethyl-phenyl)-[4'-methyl-4-(1-methyl-1H-indol-6-ylamino)-[1,4']bipiperidinyl-1'-yl]-methanone] | 43
6 | Cc1cccc(C)c1C(=O)N1CCC(C)(N2CCC(N(Cc3ccccc3)c3ccc(Br)cc3)CC2)CC1 [{4-[Benzyl-(4-bromo-phenyl)-amino]-4'-methyl-[1,4']bipiperidinyl-1'-yl}-(2,6-dimethyl-phenyl)-methanone] | 6.2
